Laboratory results from US10294212B2 (CURADEV PHARMA PRIVATE LTD., priority 2013, dated 2019).

Legend:
[1] = molecular target: Human TDO (hTDO)-transfected CHO-K1 cells (Homo sapiens (Human), UniProt P48775); assay: CHO-K1 cell based TDO assay; settings: hTDO cellular assay
Summary of the method: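 Kynurenine output was read by LC/MS/MS after TCA precipitation and 15 min at 65° C. Before that, CHO-K1 cells stably carrying human TDO2 were incubated 2 h with compounds (typically 31 μM to 10 nM) and 80 μM L-tryptophan in HBSS. Decrease versus DMSO vehicle gave percent inhibition, then IC50.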

IDO1 in HeLa cells = IDO1 in HeLa cells (Homo sapiens (Human), UniProt P14902); assay: HeLa cell based IDO1 assay (IFNγ-induced, KYN in supernatant)
Summary of the method: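 Kynurenine in the supernatant, quantified by C-18 HPLC with 360 nm absorbance after TCA hydrolysis (65 °C, 15 min), was the read-out. Compounds (typically 10 μM to 1 nM) were added in HBSS containing 80 μM tryptophan to HeLa cells pre-induced overnight with 50 ng/mL IFNγ. IC50 came from nonlinear fits of % inhibition versus 1% DMSO vehicle.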

[2] = molecular target: Human indoleamine 2,3-dioxygenase1 (hIDO1) (Homo sapiens (Human), UniProt P14902); assay: In-vitro IDO1 enzyme assay (conversion of L-tryptophan to KYN); assay type: biochemical; settings: read-out: IC50 (IDO1) Enz
Summary of the method: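 Kynurenine formation quantified by HPLC absorbance at 360 nm or LC/MS/MS after TCA quench and 15 min at 65 °C. Reaction: 10 nM N-His hIDO1, 30 μM tryptophan, ascorbate/methylene blue/catalase, pH 6.5 phosphate buffer, 37 °C for 30 min. Inhibition relative to 1% DMSO vehicle, fitted to IC50.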

Sequence of Human indoleamine 2,3-dioxygenase1 (hIDO1) (P14902 whole entry): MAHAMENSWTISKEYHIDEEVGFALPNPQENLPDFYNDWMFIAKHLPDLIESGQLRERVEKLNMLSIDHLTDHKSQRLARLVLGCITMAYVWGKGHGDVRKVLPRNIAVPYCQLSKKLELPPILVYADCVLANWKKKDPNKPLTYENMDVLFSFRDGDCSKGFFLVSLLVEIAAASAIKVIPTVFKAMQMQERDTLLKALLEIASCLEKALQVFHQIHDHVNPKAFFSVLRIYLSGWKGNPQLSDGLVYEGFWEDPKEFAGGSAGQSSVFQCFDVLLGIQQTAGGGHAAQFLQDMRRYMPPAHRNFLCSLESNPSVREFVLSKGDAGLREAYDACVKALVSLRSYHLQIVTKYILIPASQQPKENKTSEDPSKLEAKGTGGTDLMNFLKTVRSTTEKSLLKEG
Sequence of IDO1 in HeLa cells (P14902 whole entry): as above
Sequence of Human TDO (hTDO)-transfected CHO-K1 cells (P48775 whole entry): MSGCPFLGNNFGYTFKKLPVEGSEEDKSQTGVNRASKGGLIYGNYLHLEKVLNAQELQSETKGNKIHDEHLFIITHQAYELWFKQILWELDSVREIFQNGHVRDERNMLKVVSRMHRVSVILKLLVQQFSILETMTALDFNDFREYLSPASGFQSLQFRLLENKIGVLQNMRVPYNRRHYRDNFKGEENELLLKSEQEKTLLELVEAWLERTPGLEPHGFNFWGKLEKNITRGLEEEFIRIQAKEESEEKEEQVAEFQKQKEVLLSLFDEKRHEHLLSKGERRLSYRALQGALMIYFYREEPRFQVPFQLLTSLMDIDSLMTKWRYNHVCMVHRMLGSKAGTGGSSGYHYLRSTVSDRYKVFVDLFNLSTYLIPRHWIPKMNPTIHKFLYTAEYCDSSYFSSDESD

IC50 [1] [µM] | IC50 (IDO1 in HeLa cells) [µM] | IC50 [2] [µM] | Structure (SMILES)
> 2 | < 0.2 | < 0.2 | Nc1sc2c(-c3ccccc3)cccc2c1Nc1ccc(F)c(Cl)c1 [Compound 233, N^3-(3-Chloro-4-fluorophenyl)-7-phenylbenzo[b]thiophene-2,3-diamine]
0.5 to 2 | < 0.2 | < 0.2 | Nc1oc2c(-c3ccncc3)nccc2c1Nc1ccccc1Cl [Compound 202, N^3-(2-Chlorophenyl)-7-(pyridin-4-yl)furo[2,3-c]pyridine-2,3-diamine]
< 0.5 | < 0.2 | < 0.2 | Nc1oc2c(-c3ccncc3)nccc2c1Nc1cccc(Cl)c1 [Compound 217, N^3-(3-Chlorophenyl)-7-(pyridin-4-yl)furo[2,3-c]pyridine-2,3-diamine]
0.5 to 2 | < 0.2 | < 0.2 | CNC(=O)c1cc(-c2nccc3c(Nc4ccc(F)c(Cl)c4)c(N)oc23)ccn1 [Compound 195, 4-(2-Amino-3-((3-chloro-4-fluorophenyl)amino)furo[2,3-c]pyridin-7-yl)-N-methylpicolinamide]
0.5 to 2 | < 0.2 | < 0.2 | C#Cc1cc(Nc2c(N)oc3c(-c4ccncc4)nccc23)ccc1F [Compound 111, N^3-(3-Ethynyl-4-fluorophenyl)-7-(pyridin-4-yl)furo[2,3-c]pyridine-2,3-diamine]
> 2 | < 0.2 | < 0.2 | COc1cc2c(Nc3ccc(F)c(Cl)c3)c(N)oc2c(-c2ccc(C#N)cc2)n1 [Compound 173, 4-(2-Amino-3-((3-chloro-4-fluorophenyl)amino)-5-methoxyfuro[2,3-c]pyridin-7-yl)benzonitrile]
< 0.5 | < 0.2 | < 0.2 | Cc1nccc2c(Nc3ccc(F)c(Cl)c3)c(N)oc12 [Compound 66, N^3-(3-Chloro-4-fluoro-phenyl)-7-methyl-furo[2,3-c]pyridine-2,3-diamine]
0.5 to 2 | < 0.2 | < 0.2 | Cc1cc(-c2nc(F)cc3c(Nc4ccc(F)c(F)c4)c(N)oc23)ccn1 [Compound 246, N^3-(3,4-Difluorophenyl)-5-fluoro-7-(2-methylpyridin-4-yl)furo[2,3-c]pyridine-2,3-diamine]
> 2 | < 0.2 | < 0.2 | CNC(=O)c1cc(-c2nccc3c(Nc4ccc(F)c(C(F)(F)F)c4)c(N)oc23)ccn1 [Compound 227, 4-(2-amino-3-((4-fluoro-3-(trifluoromethyl)phenyl)amino)furo[2,3-c]pyridin-7-yl)-N-methylpicolinamide]
> 2 | 0.2 to 1 | < 0.2 | Nc1oc2c(-c3cc(Cl)cc(Cl)c3)nccc2c1Nc1ccc(F)c(Cl)c1 [Compound 258, N^3-(3-Chloro-4-fluorophenyl)-7-(3,5-dichlorophenyl)furo[2,3-c]pyridine-2,3-diamine]
< 0.5 | < 0.2 | < 0.2 | Nc1oc2cnc(F)cc2c1Nc1cccc(Cl)c1 [Compound 220, N^3-(3-Chlorophenyl)-5-fluorofuro[2,3-c]pyridine-2,3-diamine]
0.5 to 2 | < 0.2 | < 0.2 | CCCc1nccc2c(Nc3ccc(F)c(C(F)(F)F)c3)c(N)oc12 [Compound 79, N^3-(4-Fluoro-3-(trifluoromethyl)phenyl)-7-propylfuro[2,3-c]pyridine-2,3-diamine]
0.5 to 2 | < 0.2 | < 0.2 | Cc1cc(Nc2c(N)oc3cnccc23)ccc1F [Compound 27, N^3-(4-Fluoro-3-methylphenyl)furo[2,3-c]pyridine-2,3-diamine]
0.5 to 2 | < 0.2 | < 0.2 | Cc1cc(-c2nccc3c(Nc4ccc(F)c(Cl)c4)c(N)oc23)ccn1 [Compound 158, N^3-(3-chloro-4-fluorophenyl)-7-(2-methylpyridin-4-yl)furo[2,3-c]pyridine-2,3-diamine]
0.5 to 2 | < 0.2 | < 0.2 | Nc1oc2cnc(F)cc2c1Nc1cccc(C(F)(F)F)c1 [Compound 221, 5-Fluoro-N^3-(3-(trifluoromethyl)phenyl)furo[2,3-c]pyridine-2,3-diamine]
0.5 to 2 | < 0.2 | < 0.2 | Nc1oc2c(-c3cc(F)cc(F)c3)nccc2c1Nc1ccc(F)c(Cl)c1 [Compound 278, N^3-(3-Chloro-4-fluorophenyl)-7-(3,5-difluorophenyl)furo[2,3-c]pyridine-2,3-diamine]
0.5 to 2 | < 0.2 | < 0.2 | Nc1oc2cnc(Cl)cc2c1Nc1ccc(F)c(Cl)c1 [Compound 177, 5-Chloro-N3-(3-chloro-4-fluorophenyl)furo[2,3-c]pyridine-2,3-diamine]
> 2 | 0.2 to 1 | < 0.2 | CC(C)(C)c1cc(-c2nccc3c(Nc4ccc(F)c(Cl)c4)c(N)oc23)ccn1 [Compound 259, 7-(2-(tert-Butyl)pyridin-4-yl)-N^3-(3-chloro-4-fluorophenyl)furo[2,3-c]pyridine-2,3-diamine]
0.5 to 2 | < 0.2 | < 0.2 | Nc1oc2c(-c3ccnc(C(=O)N4CCOCC4)c3)nccc2c1Nc1ccc(F)c(Cl)c1 [Compound 272, (4-(2-Amino-3-((3-chloro-4-fluorophenyl)amino)furo[2,3-c]pyridin-7-yl)pyridin-2-yl)(morpholino)methanone]
> 2 | < 0.2 | < 0.2 | COc1cc2c(Nc3ccc(F)c(Cl)c3)c(N)oc2c(-c2ccc(C(N)=O)cc2)n1 [Compound 175, 4-(2-amino-3-((3-chloro-4-fluorophenyl)amino)-5-methoxyfuro[2,3-c]pyridin-7-yl)benzamide]
0.5 to 2 | < 0.2 | < 0.2 | NC(=O)c1ccc(-c2nccc3c(Nc4ccc(F)c(Cl)c4)c(N)oc23)cc1 [Compound 151, 4-(2-Amino-3-((3-chloro-4-fluorophenyl)amino)furo[2,3-c]pyridin-7-yl)benzamide]
> 2 | < 0.2 | < 0.2 | Nc1oc2c(-c3ccnc(N4CCOCC4)c3)nccc2c1Nc1ccc(F)c(Cl)c1 [Compound 154, N^3-(3-Chloro-4-fluorophenyl)-7-(2-morpholinopyridin-4-yl)furo[2,3-c]pyridine-2,3-diamine]
< 0.5 | < 0.2 | < 0.2 | Cc1cc(-c2nccc3c(Nc4ccc(F)cc4F)c(N)oc23)ccn1 [Compound 256, N^3-(2,4-Difluorophenyl)-7-(2-methylpyridin-4-yl)furo[2,3-c]pyridine-2,3-diamine]
0.5 to 2 | < 0.2 | < 0.2 | Cc1cc(-c2nc(F)cc3c(Nc4cccc(Cl)c4)c(N)oc23)ccn1 [Compound 254, N^3-(3-Ahlorophenyl)-5-fluoro-7-(2-methylpyridin-4-yl)furo[2,3-c]pyridine-2,3-diamine]

Structure (SMILES) | IC50 [1] [µM] | IC50 (IDO1 in HeLa cells) [µM] | IC50 [2] [µM]
Cc1ncc(C)c2c(Nc3ccc(F)c(Cl)c3)c(N)oc12 [Compound 72, N^3-(3-chloro-4-fluorophenyl)-4,7-dimethylfuro[2,3-c]pyridine-2,3-diamine] | 0.5 to 2 | 0.2 to 1 | 0.2 to 1
Nc1oc2cnccc2c1Nc1ccccc1Cl [Compound 4, N^3-(2-Chlorophenyl)furo[2,3-c]pyridine-2,3-diamine] | > 2 | < 0.2 | > 1
Nc1oc2c[n+]([O-])ccc2c1Nc1ccc(F)c(Cl)c1 [Compound 260, 2-Amino-3-((3-chloro-4-fluorophenyl)amino)furo[2,3-c]pyridine 6-oxide] | 0.5 to 2 | 0.2 to 1 | 0.2 to 1
Cc1cc(Nc2c(N)oc3cnccc23)ccc1Cl [Compound 70, N^3-(4-Chloro-3-methylphenyl)furo[2,3-c]pyridine-2,3-diamine] | 0.5 to 2 | < 0.2 | 0.2 to 1
Nc1oc2cnccc2c1Nc1ccc(Br)cc1 [Compound 16, N^3-(4-Bromophenyl)furo[2,3-c]pyridine-2,3-diamine] | 0.5 to 2 | 0.2 to 1 | > 1
CCc1cccc(Nc2c(N)oc3cnccc23)c1 [Compound 19, N^3-(3-Ethylphenyl)furo[2,3-c]pyridine-2,3-diamine] | > 2 | 0.2 to 1 | 0.2 to 1
Cc1ccc(Nc2c(N)oc3cnccc23)cc1C [Compound 13, N^3-(3,4-Dimethylphenyl)furo[2,3-c]pyridine-2,3-diamine] | 0.5 to 2 | < 0.2 | 0.2 to 1
Cc1cccc(Nc2c(N)sc3ccccc23)c1C [Compound 138, N^3-(2,3-Dimethylphenyl)-1-benzothiophene-2,3-diamine] | 0.5 to 2 | 0.2 to 1 | > 1
COc1ccccc1-c1nccc2c(Nc3ccc(F)c(F)c3)c(N)oc12 [Compound 196, N^3-(3,4-Difluorophenyl)-7-(2-methoxyphenyl)furo[2,3-c]pyridine-2,3-diamine] | < 0.5 | < 0.2 | 0.2 to 1
Nc1sc2ccccc2c1Nc1ccc(F)cc1 [Compound 231, N^3-(4-Fluorophenyl)benzo[b]thiophene-2,3-diamine] | > 2 | 0.2 to 1 | 0.2 to 1
